Literature values in patent publication US20230285259A1, “METHOD FOR DYEING KERATINOUS MATERIAL, COMPRISING THE USE OF AN ORGANOSILICON COMPOUND, A DERIVATIVE OF ALKYLATED SILANOL, A COLORING COMPOUND AND A POST-TREATMENT AGENT” (Henkel AG & Co. KGaA, priority 2020, published 2023).

Details: 25° C.

Row | solubility in water | solubility in water (in words) | SMILES
1 | more than 20 wt. % | – | CCN(Cc1cccc(S(=O)(=O)O)c1)c1ccc(C(=C2C=CC(=[N+](CC)Cc3cccc(S(=O)(=O)O)c3)C=C2)c2ccccc2S(=O)(=O)[O-])cc1 [Acid Blue 9]
2 | above 40 g/L | – | O=[N+]([O-])c1cc([N+](=O)[O-])c2ccc(S(=O)(=O)O)cc2c1O [Acid Yellow 9, 8-hydroxy-5,7-dinitro-2-naphthalenesulfonic acid]
3 | – | highly soluble | O=C(O)C1=NN(c2ccc(S(=O)(=O)O)cc2)C(=O)C1N=Nc1ccc(S(=O)(=O)O)cc1 (stereo not shown) [Acid Yellow 23, 4,5-dihydro-5-oxo-1-(4-sulfophenyl)-4-((4-sulfophenyl)azo)-1H-pyrazole-3-carboxylic acid]

Row | SMILES | solubility in water | solubility in water (in words)
4 | O=S(=O)(O)c1ccc(N=Nc2c(O)ccc3ccccc23)cc1 [Acid Orange 7, 4-[(2-hydroxy-1-naphthyl)azo]benzene sulphonate] | more than 7 g/L | –
